Data reported in patent publication US9273043B2, “TRPV1 antagonists including dihydroxy substituent and uses thereof” (Purdue Pharma L.P., priority 2011, dated 2016).
In brackets after ≈: the same amount, converted by molar mass. Read-outs that look alike come from different tables or passages of the source.

Key:
[1] = Aqueous solubility at pH 1.2 and pH 6.8; assay type: physicochemical; conditions: aqueous solution
[2] = target: human TRPV1 (Homo sapiens (Human), UniProt Q8NER1); experiment: Capsaicin-based assay, Protocol 2, TRPV1/CHO cells (hCAP-CHO), Fluo-4 FLIPR; assay type: cell-based; conditions: 100 nM capsaicin, mean ± SEM
Chain of human TRPV1 (Q8NER1 whole entry, looked up, the tested form may be a part): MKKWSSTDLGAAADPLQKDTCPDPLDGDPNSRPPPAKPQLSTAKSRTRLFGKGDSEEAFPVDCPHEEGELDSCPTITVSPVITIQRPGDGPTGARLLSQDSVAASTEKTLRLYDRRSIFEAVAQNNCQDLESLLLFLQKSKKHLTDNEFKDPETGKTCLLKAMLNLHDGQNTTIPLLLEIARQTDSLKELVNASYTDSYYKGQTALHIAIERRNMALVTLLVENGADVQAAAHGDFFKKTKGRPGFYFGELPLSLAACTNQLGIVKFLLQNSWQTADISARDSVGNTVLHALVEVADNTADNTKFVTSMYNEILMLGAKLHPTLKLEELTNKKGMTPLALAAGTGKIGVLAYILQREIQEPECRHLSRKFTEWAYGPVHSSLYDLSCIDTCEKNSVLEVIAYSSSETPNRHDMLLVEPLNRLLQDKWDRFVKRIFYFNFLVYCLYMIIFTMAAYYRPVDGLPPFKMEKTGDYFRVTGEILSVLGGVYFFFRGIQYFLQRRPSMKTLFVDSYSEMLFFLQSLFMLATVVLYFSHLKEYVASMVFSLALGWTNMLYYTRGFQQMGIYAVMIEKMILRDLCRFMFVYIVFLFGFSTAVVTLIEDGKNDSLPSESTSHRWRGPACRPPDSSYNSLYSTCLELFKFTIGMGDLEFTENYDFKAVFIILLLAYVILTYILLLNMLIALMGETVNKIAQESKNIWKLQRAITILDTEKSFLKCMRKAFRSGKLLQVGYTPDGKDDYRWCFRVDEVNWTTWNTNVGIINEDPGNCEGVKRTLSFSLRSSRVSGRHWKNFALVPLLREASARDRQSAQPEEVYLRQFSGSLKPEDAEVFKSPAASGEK
Description: The TRPV1/CHO cell line was generated as described below. […] The resulting PCR products were purified from agarose gels using Gel Band Purification Kit (GE Healthcare Bioscience) and were subcloned into pCR-Blunt vector (Invitrogen). The cloned cDNA was fully sequenced using a fluorescent dye-terminator reagent (BigDye Terminator ver3.1 Cycle Sequencing Kit, Applied Biosystems) and ABI Prism 3100 genetic analyzer (Applied Biosystems). The pCR-Blunt vector containing the hTRPV1 cDNA was subjected to restriction digestion with EcoR1. The restriction fragment was subcloned into expression vector pcDNA3.1(-) (Invitrogen) and named pcDNA3.1(-)-hVR1 plasmid. The sequence of the cDNA encoding TRPV1 is available at GenBank accession number AJ277028. […] The cells were transfected with the pcDNA3.1(-)-hVR1 plasmid using FuGENE6 (Roche) according to the manufacturer's protocol. 24 hr after transfection, neomycin-resistant cells were selected using 1 mg/mL G418 (Nacalai Tesque). […] The cells expressing hTRPV1 were cultured in the growth medium supplemented with 1 mg/mL G418. […] Capsaicin-based Assay: […] Subsequently, the cells were loaded by incubation in 0.1 mL of wash buffer containing Fluo-4 at 3 μM final concentration. After 1 hour, the cells were washed twice with 0.2 mL wash buffer and resuspended in 0.1 mL wash buffer. The plates were then transferred to a Fluorescence Imaging Plate Reader (Molecular Devices). Fluorescence intensity was monitored for 15 seconds to establish a baseline. […] The final concentration of the compound was adjusted to range from 100 μM to 1.5625 μM. […] Data were collected over the entire time course and analyzed using Excel and the curve-fitting formula GraphPad Prism.

[3] = In vivo assay of body temperature increase (rectal body temperature); set-up: species or system rat; conditions: rats, oral, 10 mL/kg of 1 mg/mL in 0.5% methylcellulose; greatest ΔTb versus vehicle control at 0.5, 1 or 2 hrs
Description: Hyperthermia or undesirable elevation in animal body temperature is known to be an undesirable side-effect accompanying the administration of certain TRPV1 antagonists (Gavva, “Body-temperature maintenance as the predominant function of the vanilloid receptor TRPV1,” Trends Pharmacol. Sci. 29(11):550-557 (2008)).
Test Animals: Selection of rats (Crl/SD rats, 7 weeks, male) was based on rectal body temperature measured during the morning of the day of dosing as described below. In addition, to minimize spontaneous, stress-induced increases in body temperature, rats were acclimated in advance to both the rectal measurement procedure and to being handled and dosed. All lodging and testing took place in animal care laboratories with constant room temperature and humidity. The rats were free to move and ingest food and water throughout. Each rat was coded with a colored line on the tail, housed in a separate cage, and permitted the normal range of movement. Immediately before each body temperature measurement, a rat was transferred to a measurement cage. To reduce stress which could influence its body temperature, each rat was covered with towels during the measurement. A thermistor probe was then carefully inserted into the rectum of each rat and left in place until the temperature reading on the digital display had stabilized; this value was recorded.
Assay: On the day before dosing, rectal body temperature was measured at 9:00, 10:00, 11:00, 12:30, 13:30, 14:30, and 15:30 o'clock to familiarize the rats with the measurement procedure prior to administration of the test or control treatments. The rats were also dosed by oral gavage without vehicle at 12:30 o'clock to acclimate and familiarize them with the handling and dosing procedure.
On the day of dosing, only rats with rectal body temperatures within the range of from 37.0° C. to 37.7° C. were selected for study. Rectal body temperatures were measured at 9:00, 10:00, and 11:00 o'clock. Rats were excluded from the study if either their rectal body temperature was over 37.9° C. at 10:00 o'clock or was outside the range of from 37.0° C. to 37.7° C. at 11:00 o'clock. The selected rats were divided into several groups based on their rectal body temperatures at 11:00 o'clock. Rectal body temperatures of the selected rats were measured again at 12:30 o'clock and any rat with a rectal body temperature of 38.0° C. or greater was also excluded from the study.
Following assignment to either a test or control group, a test compound or a control was administered to the rats. Each test compound was dissolved in a vehicle of 0.5% aqueous methylcellulose solution and the final concentration of the test compound was adjusted to 1 mg/mL. Each test compound was orally administered once at a dose of 10 mL/kg. The same volume of the control (vehicle only) was administered once to the control group. Rectal body temperatures were measured at the following time points: 0.5, 1, and 2 hrs after administration.
The body temperature increase (ΔTb) for each test compound was calculated by subtracting, at each time point, the average temperature of the control group from the average temperature of the group administered that test compound. The greatest ΔTb obtained for each test compound at any of the time points is shown in Table 11 below, along with the ΔTb of the control.

[4] = pH 1.2, simulated gastric fluid, read-out: aqueous solubility at pH 1.2
[5] = pH 6.8, aqueous buffer, read-out: aqueous solubility at pH 6.8
[6] = pH 1.2, read-out: aqueous solubility at pH 1.2
[7] = pH 6.8, read-out: aqueous solubility at pH 6.8

Structure (SMILES): C[C@H]1CN(c2ncc([C@@H](O)CO)cc2F)CCN1C(=O)Nc1nc2cc(F)ccc2s1 [A155(d), (S)-4-{5-[(R)-1,2-dihydroxyethyl]-3-fluoropyridin-2-yl}-N-(5-fluorobenzo[d]thiazol-2-yl)-2-methylpiperazine-1-carboxamide]
- solubility [1, 4]: > 50 µM
- solubility [1, 5]: 4 µM (≈ 1.8 µg/mL)
- IC50 [2]: 168 ± 42 nM
- ΔTb, body temperature increase [3]: 0.1 °C

Structure (SMILES): C[C@@H]1CN(c2ncc([C@@H](O)CO)cc2F)CCN1C(=O)Nc1nc2cc(F)ccc2s1 [A155(e), (R)-4-{5-[(R)-1,2-dihydroxyethyl]-3-fluoropyridin-2-yl}-N-(5-fluorobenzo[d]thiazol-2-yl)-2-methylpiperazine-1-carboxamide]
- solubility [1, 4]: > 50 µM
- solubility [1, 5]: 5 µM (≈ 2.25 µg/mL)
- IC50 [2]: 16.5 ± 4.2 nM
- ΔTb, body temperature increase [3]: 0.1 °C

Structure (SMILES): C[C@H]1CN(c2ncc([C@H](O)CO)cc2Cl)CCN1C(=O)Nc1nc2ccc(F)cc2s1 [AA]
- ΔTb, body temperature increase [3]: 0.8 °C

Structure (SMILES): C[C@H]1CN(c2ncc([C@H](O)CO)cc2F)CCN1C(=O)Nc1nc2ccc(Cl)cc2s1 [AB]
- ΔTb, body temperature increase [3]: 0.6 °C

Structure (SMILES): C[C@H]1CN(c2ncc([C@H](O)CO)cc2F)CCN1C(=O)Nc1nc2ccc(F)cc2s1 [AC]
- ΔTb, body temperature increase [3]: 0.7 °C

Structure (SMILES): C[C@H]1CN(C(=O)Nc2nc3ccc(F)cc3s2)CCN1c1ncc([C@H](O)CO)cc1F [AD]
- ΔTb, body temperature increase [3]: 0.6 °C

Structure (SMILES): C[C@H](O)[C@@H](O)c1cnc(N2CCN(C(=O)Nc3nc4cc(F)ccc4s3)[C@@H](C)C2)c(F)c1 [B155(h), (S)-4-{5-[(1S,2S)-1,2-dihydroxypropyl]-3-fluoropyridin-2-yl}-N-(5-fluorobenzo[d]thiazol-2-yl)-2-methylpiperazine-1-carboxamide]
- IC50 [2]: 107 ± 20 nM

Structure (SMILES): C[C@H](O)[C@@H](O)c1cnc(N2CCN(C(=O)Nc3nc4ccc(F)cc4s3)[C@H](C)C2)c(Cl)c1 [BA]
- ΔTb, body temperature increase [3]: 0.9 °C

Structure (SMILES): C[C@H](O)[C@@H](O)c1cnc(N2CCN(C(=O)Nc3nc4ccc(F)cc4s3)[C@H](C)C2)c(F)c1 [BC]
- ΔTb, body temperature increase [3]: 0.7 °C

Structure (SMILES): O=C(Nc1ccc(C(F)(F)F)cc1)N1CC=C(c2ncccc2Cl)CC1 [Compound 200]
- solubility [1, 6]: < 0.1 µM

Structure (SMILES): O=C(Nc1ccc(C(F)(F)F)cc1)N1CCC(F)(c2ncccc2Cl)CC1 [Compound 203]
- aqueous solubility at pH 6.8 ([1]; pH 6.8): insoluble

Structure (SMILES): O=C(Nc1ccc(C(F)(F)F)cc1)N1CCC(F)(c2ncccc2F)CC1 [Compound 207]
- aqueous solubility at pH 6.8 ([1]; pH 6.8): insoluble

Structure (SMILES): O=C(Nc1ccc(C(F)(F)F)cc1)N1CC=C(c2ncccc2F)CC1 [Compound 208]
- aqueous solubility at pH 6.8 ([1]; pH 6.8): insoluble

Structure (SMILES): O=C(Nc1ccc(C(F)(F)F)c(F)c1)N1CCC(F)(c2ncccc2Cl)CC1 [Compound 209]
- solubility [1, 6]: 9.3 µM (≈ 3.9 µg/mL)
- solubility [1, 7]: 1.0 µM (≈ 0.42 µg/mL)

Structure (SMILES): O=C(Nc1ccc(S(=O)(=O)C(F)(F)F)cc1)N1CCC(F)(c2ncccc2Cl)CC1 [Compound 210]
- solubility [1, 6]: 2.0 µM (≈ 0.932 µg/mL)
- solubility [1, 7]: 0.4 µM (≈ 0.186 µg/mL)

Structure (SMILES): O=C(Nc1ccc(OC(F)(F)F)cc1)N1CCC(F)(c2ncccc2Cl)CC1 [Compound 211]
- solubility [1, 6]: 1.3 µM (≈ 0.543 µg/mL)
- solubility [1, 7]: 0.4 µM (≈ 0.167 µg/mL)

Structure (SMILES): O=C(Nc1ccc(C(F)(F)F)c(F)c1)N1CCC(F)(c2ncccc2F)CC1 [Compound 212]
- solubility [1, 6]: 10.3 µM (≈ 4.15 µg/mL)
- solubility [1, 7]: 1.9 µM (≈ 0.766 µg/mL)

Structure (SMILES): O=C(Nc1ccc(C(F)(F)F)c(F)c1)N1CC=C(c2ncccc2Cl)CC1 [Compound 213]
- solubility [1, 6]: 39.6 µM (≈ 15.8 µg/mL)
- solubility [1, 7]: 0.8 µM (≈ 0.32 µg/mL)

Structure (SMILES): O=C(Nc1ccc(OC(F)(F)F)cc1)N1CC=C(c2ncccc2Cl)CC1 [Compound 214]
- solubility [1, 6]: > 50 µM
- solubility [1, 7]: 1.8 µM (≈ 0.716 µg/mL)

Structure (SMILES): O=C(Nc1ccc(C(F)(F)F)c(Cl)c1)N1CC=C(c2ncccc2F)CC1 [Compound 215]
- solubility [1, 6]: 9.6 µM (≈ 3.84 µg/mL)
- solubility [1, 7]: 0.6 µM (≈ 0.24 µg/mL)

Structure (SMILES): C[C@@H]1CN(c2ncc([C@H](O)CO)cc2Cl)CCN1C(=O)Nc1nc2ccccc2s1 [DA]
- ΔTb, body temperature increase [3]: 0.9 °C

Structure (SMILES): C[C@@H]1CN(c2ncc([C@H](O)CO)cc2F)CCN1C(=O)Nc1nc2ccccc2s1 [DB]
- ΔTb, body temperature increase [3]: 1.1 °C

Structure (SMILES): C[C@@H]1CN(c2ncc([C@H](O)CO)cc2C(F)(F)F)CCN1C(=O)Nc1nc2ccccc2s1 [DC]
- ΔTb, body temperature increase [3]: 1.0 °C

Structure (SMILES): O=C(Nc1nc2ccc(F)cc2s1)N1CCN(c2ncc([C@H](O)CO)cc2Cl)CC1 [DD]
- ΔTb, body temperature increase [3]: 1.0 °C

Structure (SMILES): C[C@@H]1CN(c2ncc([C@H](O)CO)cc2Cl)CCN1C(=O)Nc1nc2ccc(F)cc2s1 [DE]
- ΔTb, body temperature increase [3]: 1.3 °C

Structure (SMILES): O=C(Nc1nc2ccc(F)cc2s1)N1CCN(c2ncc([C@H](O)CO)cc2F)CC1 [DF]
- ΔTb, body temperature increase [3]: 0.5 °C

Structure (SMILES): C[C@@H]1CN(c2ncc([C@H](O)CO)cc2F)CCN1C(=O)Nc1nc2ccc(F)cc2s1 [DG]
- ΔTb, body temperature increase [3]: 1.0 °C

Structure (SMILES): O=C(Nc1nc2ccc(F)cc2s1)N1CCN(c2ncc([C@H](O)CO)cc2C(F)(F)F)CC1 [DH]
- ΔTb, body temperature increase [3]: 0.9 °C

Structure (SMILES): C[C@@H]1CN(c2ncc([C@H](O)CO)cc2C(F)(F)F)CCN1C(=O)Nc1nc2ccc(F)cc2s1 [DI]
- ΔTb, body temperature increase [3]: 0.8 °C

Structure (SMILES): Cc1ccc2nc(NC(=O)N3CCN(c4ncc([C@H](O)CO)cc4Cl)CC3)sc2c1 [DJ]
- ΔTb, body temperature increase [3]: 0.9 °C

Structure (SMILES): C[C@@H]1CN(c2ncc([C@H](O)CO)cc2F)CCN1C(=O)Nc1nc2cc(F)ccc2s1 [DK]
- ΔTb, body temperature increase [3]: 0.7 °C

Structure (SMILES): Cc1cc2nc(NC(=O)N3CCN(c4ncc([C@H](O)CO)cc4F)C[C@H]3C)sc2cc1C [DL]
- ΔTb, body temperature increase [3]: 0.9 °C

Structure (SMILES): Cc1cc2nc(NC(=O)N3CCN(c4ncc([C@H](O)CO)cc4C)CC3)sc2cc1C [DM]
- ΔTb, body temperature increase [3]: 0.9 °C

Structure (SMILES): Cc1cc([C@H](O)CO)cnc1N1CCN(C(=O)Nc2nc3ccc(Cl)cc3s2)CC1 [DN]
- ΔTb, body temperature increase [3]: 0.8 °C

Structure (SMILES): COc1ccc2nc(NC(=O)N3CCN(c4ncc([C@H](O)CO)cc4F)C[C@H]3C)sc2c1 [DO]
- ΔTb, body temperature increase [3]: 1.1 °C

Structure (SMILES): COc1ccc2nc(NC(=O)N3CCN(c4ncc([C@H](O)CO)cc4Cl)CC3)sc2c1 [DP]
- ΔTb, body temperature increase [3]: 1.2 °C
